biological target: Factor D (Homo sapiens (Human), UniProt P00746); test: biochemical; type: biochemical; details: not given
Sequence (P00746 26-253): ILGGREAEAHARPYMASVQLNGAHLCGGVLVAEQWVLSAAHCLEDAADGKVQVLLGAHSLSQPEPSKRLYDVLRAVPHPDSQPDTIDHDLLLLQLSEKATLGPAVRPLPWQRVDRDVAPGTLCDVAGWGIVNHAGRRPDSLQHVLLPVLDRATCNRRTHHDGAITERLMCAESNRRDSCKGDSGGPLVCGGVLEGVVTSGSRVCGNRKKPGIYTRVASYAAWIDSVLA

First: NC(=O)n1cc(NC(=O)N2C[C@@H](N)C[C@H]2C(=O)NC[C@H]2CCCC[C@@H]2O)c2ccccc21 (relative stereo) [Example 75, (2S,4S)-4-Amino-pyrrolidine-1,2-dicarboxylic acid 1-[(1-carbamoyl-1H-indol-3-yl)-amide] 2-[((1R*,2S*)-2-hydroxy-cyclohexylmethyl)-amide]]
Second: NC(=O)n1cc(NC(=O)N2C[C@H]3C[C@H]3[C@H]2C(=O)NCc2cccc(Cl)c2)c2ccccc21 (relative stereo) [Example 167, (1R*,2S*,5S*)-3-Aza-bicyclo[3.1.0]hexane-2,3-dicarboxylic acid 3-[(1-carbamoyl-1H-indol-3-yl)-amide] 2-(3-chloro-benzylamide)]
The IC50 of the first is 120-fold higher: 12600 nM for the first, 108 nM for the second.

First: NC(=O)n1cc(NC(=O)N2C[C@@H]3C[C@@H]3[C@H]2C(=O)NCc2cccc(Cl)c2F)c2cc(OCCO)ccc21 (relative stereo) [Example 382, 1S*,2S*,5R*)-3-Aza-bicyclo[3.1.0]hexane-2,3-dicarboxylic acid 3-{[1-carbamoyl-5-(2-hydroxy-ethoxy)-1H-indol-3-yl]-amide}2-(3-chloro-2-fluoro-benzylamide]
Second: NC(=O)n1cc(CC(=O)N2C[C@@H]3C[C@@H]3[C@H]2C(=O)NCc2cccc(Cl)c2F)c2cc(OCCO)ccc21 (relative stereo) [Example 465, 3-{2-[(1S*,2S*,5R*)-2-(3-Chloro-2-fluoro-benzylcarbamoyl)-3-aza-bicyclo[3.1.0]hex-3-yl]-2-oxo-ethyl}-5-(2-hydroxy-ethoxy)-indole-1-carboxylic acid amide]
The IC50 of the first is 8.6-fold lower: 184 nM for the first, 1590 nM for the second. The first is the more potent here.

same assay, conditions: read-out: IC50

“2S,3R)-3-(2-Methoxy-ethylamino)-pyrrolidine-1,2-dicarboxylic acid 1-[(1-carbamoyl-1H-indol-3-yl)-amide]2-(3-chloro-2-fluoro-benzylamide [Example 423]” and “2S,3R)-3-Acetylamino-pyrrolidine-1,2-dicarboxylic acid 1-[(1-carbamoyl-1H-indol-3-yl)-amide]2-(3-chloro-2-fluoro-benzylamide [Example 422]” are within 1.5-fold of each other in IC50: 780 nM for the first, 888 nM for the second.

Going from `NC(=O)n1cc(NC(=O)N2C[C@H](F)C[C@H]2C(=O)NC2CCOc3ccc(Cl)cc32)c2ccccc21` (mixture of isomers) [Example 326, (2S,4R)-4-Fluoro-pyrrolidine-1,2-dicarboxylic acid 1-[(1-carbamoyl-1H-indol-3-yl)-amide] 2-[(6-chloro-chroman-4-yl)-amide] (mixture of 2 diastereomers)] to `NC(=O)n1cc(NC(=O)N2N=CCC2C(=O)NCc2cccc(Cl)c2F)c2ccccc21` (racemic) [Example 201, 4,5-Dihydro-pyrazole-1,5-dicarboxylic acid 1-[(1-carbamoyl-1H-indol-3-yl)-amide] 5-(3-chloro-2-fluoro-benzylamide)], the IC50 falls from 7150 nM to 20 nM (360-fold). The second is the more potent here.

Going from `NC(=O)n1cc(NC(=O)N2N=CC[C@H]2C(=O)NCc2cccc(Cl)c2F)c2ccccc21` (single isomer, unassigned) [Example 362, S^§)-4,5-Dihydro-pyrazole-1,5-dicarboxylic acid 1-[(1-carbamoyl-1H-indol-3-yl)-amide]5-(3-chloro-2-fluoro-benzylamide] to `NC(=O)n1cc(NC(=O)N2N=CC[C@@H]2C(=O)NCc2cccc(Cl)c2F)c2ccccc21` (single isomer, unassigned) [Example 363, R^§)-4,5-Dihydro-pyrazole-1,5-dicarboxylic acid 1-[(1-carbamoyl-1H-indol-3-yl)-amide]5-(3-chloro-2-fluoro-benzylamide], the IC50 rises from 5 nM to 9250 nM (1800-fold).

First: C[C@@H](NC(=O)[C@@H]1[C@H](O)CCN1C(=O)Nc1cn(C(N)=O)c2ccccc12)c1cccc(Cl)c1F (single isomer, unassigned) [Example 364]
Second: C[C@H](NC(=O)[C@@H]1[C@H](O)CCN1C(=O)Nc1cn(C(N)=O)c2ccccc12)c1cccc(Cl)c1F (single isomer, unassigned) [Example 365]
The IC50 of the first is 20-fold higher: 900 nM for the first, 45 nM for the second. The second is the more potent here.

First: COC(=O)C(NC(=O)[C@@H]1C[C@H](N)CN1C(=O)Nc1cn(C(N)=O)c2ccccc12)C(C)C (stereo in doubt) [Example 94, (R)-2-{[(2S,4S)-4-Amino-1-(1-carbamoyl-1H-indol-3-ylcarbamoyl)-pyrrolidine-2-carbonyl]-amino}-3-methyl-butyric acid methyl ester]
Second: NC(=O)n1cc(NC(=O)N2C[C@H](F)C[C@H]2C(=O)NCc2cccc(Cl)c2F)c2ccccc21 [Example 1]
The IC50 of the first is 1600-fold higher: 11000 nM for the first, 7 nM for the second.

Compared with `NC(=O)n1cc(NC(=O)N2C[C@H](F)C[C@H]2C(=O)NCc2ccccc2)c2ccccc21` [Example 2, (2S,4R)-4-Fluoro-pyrrolidine-1,2-dicarboxylic acid 2-benzylamide 1-[(1-carbamoyl-1H-indol-3-yl)-amide]], `NC(=O)n1cc(NC(=O)N2C[C@H](F)C[C@H]2C(=O)NCc2cccnc2)c2ccccc21` [Example 3, (2S,4R)-4-Fluoro-pyrrolidine-1,2-dicarboxylic acid 1-[(1-carbamoyl-1H-indol-3-yl)-amide] 2-[(pyridin-3-ylmethyl)-amide]] is 18-fold higher in IC50: 25 nM for the first, 450 nM for the second. The first is the more potent here.

Going from `COCCN(C)Cc1cc(Cl)c(F)c(CNC(=O)[C@@H]2C[C@@H](F)CN2C(=O)Nc2cn(C(N)=O)c3ccccc23)c1` [Example 4, (2S,4R)-4-Fluoro-pyrrolidine-1,2-dicarboxylic acid 1-[(1-carbamoyl-1H-indol-3-yl)-amide] 2-(3-chloro-2-fluoro-5-{[(2-methoxy-ethyl)-methyl-amino]-methyl}-benzylamide)] to `NC(=O)n1cc(NC(=O)N2C[C@H](F)C[C@H]2C(=O)N[C@H](CO)c2cccc(Cl)c2F)c2ccccc21` [Example 5, (2S,4R)-4-Fluoro-pyrrolidine-1,2-dicarboxylic acid 1-[(1-carbamoyl-1H-indol-3-yl)-amide] 2-{[(S)-1-(3-chloro-2-fluoro-phenyl)-2-hydroxy-ethyl]-amide}], the IC50 falls from 3980 nM to 30 nM (130-fold). The second is the more potent here.

Going from `NC(=O)n1cc(NC(=O)N2C[C@H](F)C[C@H]2C(=O)NCc2ccncc2)c2ccccc21` [Example 6, (2S,4R)-4-Fluoro-pyrrolidine-1,2-dicarboxylic acid 1-[(1-carbamoyl-1H-indol-3-yl)-amide] 2-[(pyridin-4-ylmethyl)-amide]] to `NC(=O)n1cc(NC(=O)N2C[C@H](F)C[C@H]2C(=O)NCc2cccc(Cl)c2)c2ccccc21` [Example 8, (2S,4R)-4-Fluoro-pyrrolidine-1,2-dicarboxylic acid 1-[(1-carbamoyl-1H-indol-3-yl)-amide] 2-(3-chloro-benzylamide)], the IC50 falls from 2100 nM to 9 nM (230-fold). The second is the more potent here.

Going from `NC(=O)n1cc(NC(=O)N2C[C@H](F)C[C@H]2C(=O)NCc2cccc(O)c2)c2ccccc21` [Example 9, (2S,4R)-4-Fluoro-pyrrolidine-1,2-dicarboxylic acid 1-[(1-carbamoyl-1H-indol-3-yl)-amide] 2-(3-hydroxy-benzylamide)] to `CN1CCN(Cc2cc(Cl)c(F)c(CNC(=O)[C@@H]3C[C@@H](F)CN3C(=O)Nc3cn(C(N)=O)c4ccccc34)c2)CC1` [Example 10, (2S,4R)-4-Fluoro-pyrrolidine-1,2-dicarboxylic acid 1-[(1-carbamoyl-1H-indol-3-yl)-amide] 2-[3-chloro-2-fluoro-5-(4-methyl-piperazin-1-ylmethyl)-benzylamide]], the IC50 rises from 250 nM to 604 nM (2.4-fold). The first is the more potent here.

Compared with `NC(=O)n1cc(NC(=O)N2C[C@H](F)C[C@H]2C(=O)NCc2ccc(Cl)s2)c2ccccc21` [Example 11, (2S,4R)-4-Fluoro-pyrrolidine-1,2-dicarboxylic acid 1-[(1-carbamoyl-1H-indol-3-yl)-amide] 2-[(5-chloro-thiophen-2-ylmethyl)-amide]], `CCN(CC)Cc1cc(Cl)c(F)c(CNC(=O)[C@@H]2C[C@@H](F)CN2C(=O)Nc2cn(C(N)=O)c3ccccc23)c1` [Example 12, (2S,4R)-4-Fluoro-pyrrolidine-1,2-dicarboxylic acid 1-[(1-carbamoyl-1H-indol-3-yl)-amide] 2-(3-chloro-5-diethylamino-methyl-2-fluoro-benzyl-amide)] is 1600-fold higher in IC50: 7 nM for the first, 11100 nM for the second. The first is the more potent here.

Going from `NC(=O)n1cc(NC(=O)N2C[C@H](F)C[C@H]2C(=O)N[C@H](CO)c2ccccc2)c2ccccc21` [Example 13, (2S,4R)-4-Fluoro-pyrrolidine-1,2-dicarboxylic acid 1-[(1-carbamoyl-1H-indol-3-yl)-amide] 2-[((S)-2-hydroxy-1-phenyl-ethyl)-amide]] to `CC[C@H](C)[C@H](NC(=O)[C@@H]1C[C@@H](F)CN1C(=O)Nc1cn(C(N)=O)c2ccccc12)C(=O)OC(C)(C)C` [Example 15, (2S,3S)-2-{[(2S,4R)-1-(1-Carbamoyl-1H-indol-3-ylcarbamoyl)-4-fluoro-pyrrolidine-2-carbonyl]-amino}-3-methyl-pentanoic acid tert-butyl ester], the IC50 rises from 139 nM to 1100 nM (7.9-fold). The first is the more potent here.

Going from `CN(C)CCN(C)Cc1cc(Cl)c(F)c(CNC(=O)[C@@H]2C[C@@H](F)CN2C(=O)Nc2cn(C(N)=O)c3ccccc23)c1` [Example 17, (2S,4R)-4-Fluoro-pyrrolidine-1,2-dicarboxylic acid 1-[(1-carbamoyl-1H-indol-3-yl)-amide] 2-(3-chloro-5-{[(2-dimethylamino-ethyl)-methyl-amino]-methyl}-2-fluoro-benzylamide)] to `NC(=O)n1cc(NC(=O)N2C[C@H](F)C[C@H]2C(=O)NCc2cc(CN3CCOCC3)cc(Cl)c2F)c2ccccc21` [Example 18, (2S,4R)-4-Fluoro-pyrrolidine-1,2-dicarboxylic acid 1-[(1-carbamoyl-1H-indol-3-yl)-amide] 2-(3-chloro-2-fluoro-5-morpholin-4-ylmethyl-benzylamide)], the IC50 falls from 4050 nM to 815 nM (5-fold). The second is the more potent here.

Compared with `COC1CCN(Cc2cc(Cl)c(F)c(CNC(=O)[C@@H]3C[C@@H](F)CN3C(=O)Nc3cn(C(N)=O)c4ccccc34)c2)CC1` [Example 20, (2S,4R)-4-Fluoro-pyrrolidine-1,2-dicarboxylic acid 1-[(1-carbamoyl-1H-indol-3-yl)-amide] 2-(3-chloro-2-fluoro-5-(4-methoxy-piperidin-1-ylmethyl)-benzylamide]], `NC(=O)n1cc(NC(=O)N2C[C@H](F)C[C@H]2C(=O)NCc2ccccc2C(=O)O)c2ccccc21` [Example 23, 2-({[(2S,4R)-1-(1-Carbamoyl-1H-indol-3-ylcarbamoyl)-4-fluoro-pyrrolidine-2-carbonyl]-amino}-methyl)-benzoic acid] is 1.6-fold higher in IC50: 1130 nM for the first, 1850 nM for the second. The first is the more potent here.

In the case of `NC(=O)n1cc(NC(=O)N2C[C@H](F)C[C@H]2C(=O)NCc2cccc(C(=O)O)c2)c2ccccc21` [Example 24], the IC50 is reported as 1700 nM.

Source: patent US9085555B2, “Complement pathway modulators and uses thereof” (priority 2011, dated 2015)
